1 substance from article PMC9321894, “Design and Anticancer Properties of New Water-Soluble Ruthenium–Cyclopentadienyl Complexes” (Pharmaceuticals, 2022) can be followed below.

In general, IC50 refers to the midpoint of a concentration-inhibition curve.

Data set [1] can be described thus: n-Octanol/water partition coefficient, shake-flask method. The format is physicochemical. Conditions: room temperature. Here is the method:
The lipophilicity of the complexes was measured by the shake-flask method. Distilled water and n-octanol were mixed vigorously for 24 h at 25 °C, to promote solvent saturation in both phases, before the experiments. […] Aliquots of stock solutions were equilibrated with octanol for 4 h in a mechanical shaker. The phase ratio was 2 mL/2 mL (water/n-octanol). The aqueous and octanol layers were carefully separated (by centrifugation at 5000 rpm for 10 min), and UV–vis absorption spectra of the compounds were registered in both phases. The concentration for each sample was determined using the calibration curve. Triplicate experiments have been performed for each complex and the averages were calculated.

In data set [2] the test system is A2780 ovarian cancer cells. In words: MTT cytotoxicity assay, A2780. The class given is cell-based, human. Conditions: A2780, 72 h, mean ± SD n = 3. Here is the method:
(§1) The cytotoxic activity of all complexes was screened against A2780 (ovarian, Sigma-Aldrich, Lisboa, Portugal), MDAMB231 (breast, triple negative, ATCC), and HT29 (colon, ATCC) human cancer cells. Cells were grown in RPMI 1640 (A2780) or DMEM containing GlutaMax-I (MDAMB231), or McCoy’s (HT29) supplemented with 10% FBS and 1% penicillin/streptomycin (Invitrogen, Lisboa, Portugal). All cell lines were kept in a CO2 incubator (Heraeus, Hanau, Germany) with 5% CO2 at 37 °C in a humidified atmosphere. Cell viability was measured using the colorimetric MTT (3-(4,5-dimethylthiazol-2-yl)-2,5-diphenyltetrazolium bromide) assay. For the assays, cells were seeded in 200 μL of complete medium in 96-well plates and incubated at 37 °C for 24 h prior to complex treatment to allow cell adherence. The stock solutions in water (20 mM) of the complexes were freshly prepared and used for sequential dilutions in medium within the concentration range of 10^−10–10^−4 M. Cisplatin was also included in this study as a positive control. After careful removal of the medium, […] of a serial dilution of compounds in fresh medium was added to the cells, and incubation was carried out for 72 h at 37 °C. At the end of the treatment, the medium was discarded, and the cells were incubated with […] of an MTT solution in PBS (0.5 mg mL^−1). After 3 h incubation, medium was removed, and DMSO was added to solubilize the purple formazan crystals formed. The absorbance at 570 nm was measured using a plate spectrophotometer (Power Wave Xs, Bio-Tek, Winooski, VT, USA). Each experiment was repeated at least three times and each concentration tested in at least six replicates. The IC50 values were calculated from dose–response curves analyzed with the GraphPad Prism software (version 5.0).

Data set [3] has as its target T1, {HSA-warfarin} adduct, Sudlow site I of HSA (Homo sapiens, UniProt P02768).
T1 construct: purchased Sigma-Aldrich
The data set can be described thus: Site-marker competitive study with warfarin. The format is binding. Conditions: HSA and warfarin equimolar 2.5 μM, Ru 0-45 μM, excitation 305 nm, emission ~380 nm. Here is the method:
Competitive binding studies were carried out by fluorescence using the classical site marker warfarin. The concentrations of HSA and warfarin were kept equimolar. The addition of complex 6 to {HSA-warfarin} solution was done according to the procedure described above for the steady-state fluorescence quenching studies.

Data set [4] addresses T2, human serum albumin (HSA) (Homo sapiens, UniProt P02768).
T2 construct: purchased Sigma-Aldrich A1653
The data set can be described thus: Fluorescence quenching of HSA (Trp214). The format is binding. The note with it: for KSV: pH 7.4. The procedure: Human serum albumin (HSA) was dissolved in 10 mM HEPES buffer (pH 7.4). The HSA concentration was determined spectrophotometrically using the absorbance value at 280 nm (ε280 = 36,500 M^−1cm^−1). Complex 6 was dissolved in 10 mM HEPES buffer (pH 7.4). A series of ruthenium-protein batch solutions were prepared by adding different concentrations of ruthenium solutions to the protein solution prepared previously. For fluorescence acquisition, the final HSA concentration was 2.5 μM, and the ruthenium were 0, 0.6, 1.2, 1.8, 2.5, 5, 7.5, 10, 12.5, 15, 17.5, 20, 22.5, 25, 27.5, 30, 32.5, 35, 37.5, 40, 42.5, and 45 μM. […] The reference solutions were prepared following the procedures described above without protein.
Steady-state fluorescence measurements were carried out with a Fluorolog Model-3.22 spectrofluorometer from Horiba Jobin Yvon at 293.15, 298.15, and 310.15 K. All measurements were performed in Hellma® semi-micro fluorescence cuvettes (Suprasil® quartz, path length 10 × 4 mm, chamber volume […]) with the 10 mm path length for the excitation of the sample. The excitation and emission slit widths were fixed at 4.0 nm, and the excitation wavelength was set at 295 nm to selectively excite the tryptophan 214 residue. The emission spectra were recorded from 305 to 550 nm. Solutions of ruthenium complex in 10 mM HEPES buffer pH 7.4 in corresponding concentrations were used as reference for the measured fluorescence spectra of protein-complex mixtures. […] The fluorescence intensities were corrected for the absorption of the exciting light and re-absorption of the emitted light to decrease the inner filter effect using UV–visible absorption data recorded for each sample on a Jasco V-660 spectrophotometer in the range of 260 to 900 nm with 1 cm path quartz cells.
Fluorescence quenching of HSA by complex [Ru(η5-C5H5)(mTPPMS)(bopy)][CF3SO3] (6) […]
F0 = 1 + K τ (Q) = 1 + K (Q) (S1) where F0 and F are the fluorescence intensities of HSA in the absence and presence of the quencher [Ru(η5-C5H5)(mTPPMS)(bopy)][CF3SO3]; [Q] is the quencher concentration; Kq is the bimolecular quenching constant; t0 is the average fluorescence lifetime of HSA in the absence of the quencher, and KSV is the Stern-Volmer quenching constant.
Figure S10. Stern-Volmer plots at pH7.4 for the quenching of (A) HSA and (B) HSA faf by [Ru(η5-C5H5)(mTPPMS)(bopy)][CF3SO3] at three temperatures (◆) 293 K, (●) 298 K, (▲) 310 K.
log(F0 − F) = log K + nlog[Q] ( S2) […]
where Ka is the association constant for a site and n is the number of binding sites by protein.
Figure S11. Double-log plots for the fluorescence quenching for the (A) {HSA-[Ru(η5-C5H5)(mTPPMS)(bopy)][CF3SO3]} and (B) {HSAfaf-[Ru(η5-C5H5)(mTPPMS)(bopy)][CF3SO3]} systems at three temperatures (◆) 293 K, (●) 298 K, (▲) 310 K. […]

Data set [5] concerns HT29 colon cancer cells. The data set can be described thus: MTT cytotoxicity assay, HT29. The format is cell-based, human. The note with it: HT29, 72 h, mean ± SD n = 3. The procedure: as §1
(In general: Tetrazolium dyes change colour on reduction, which living cells bring about.)

T2 sequence (P02768 25-609): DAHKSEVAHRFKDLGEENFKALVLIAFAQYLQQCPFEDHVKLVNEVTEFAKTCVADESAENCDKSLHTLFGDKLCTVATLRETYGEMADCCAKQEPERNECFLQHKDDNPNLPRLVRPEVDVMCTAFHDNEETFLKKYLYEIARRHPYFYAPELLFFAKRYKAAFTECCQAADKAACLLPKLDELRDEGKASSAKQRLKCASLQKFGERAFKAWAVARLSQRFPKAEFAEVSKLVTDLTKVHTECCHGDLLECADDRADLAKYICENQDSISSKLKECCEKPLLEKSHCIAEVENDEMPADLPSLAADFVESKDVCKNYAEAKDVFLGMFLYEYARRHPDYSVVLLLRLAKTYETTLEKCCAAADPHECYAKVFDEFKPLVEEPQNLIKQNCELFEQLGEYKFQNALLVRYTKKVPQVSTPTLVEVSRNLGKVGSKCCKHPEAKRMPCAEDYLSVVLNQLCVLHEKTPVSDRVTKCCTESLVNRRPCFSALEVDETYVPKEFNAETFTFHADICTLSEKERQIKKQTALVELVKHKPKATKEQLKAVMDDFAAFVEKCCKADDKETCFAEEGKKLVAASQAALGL
T1 sequence (P02768 25-609): as above

Turning to “[RuCp(mTPPMSNa)(bopy)][CF3SO3] [Compound 6]”, the “Log Po/w” value in data set [1] was determined as 5.68 ± 0.05. The substance further registered an IC50 in data set [2] of 0.37 ± 0.2 µM. Further, in data set [3], the “Displacement of warfarin from {HSA-warfarin} adduct (in words)” value is “partially replaced”. Also, in data set [4] (293.15 K), the “Ka (association constant for a site)” value is listed as “(38.806 ± 1.26) × 10^4 L mol^−1”, the Kq entry is “(7.91 ± 0.10) × 10^12 L mol^−1 s^−1”, the “n (number of binding sites)” value is given as 1.136 and the ΔG is -17.3 kcal/mol. For the same substance, the KSV result in data set [4] (293.15 K) is “(7.91 ± 0.10) × 10^4 L mol^−1”. Moreover, in data set [4] (298.15 K), the “Ka (association constant for a site)” value is given as “(19.467 ± 1.14) × 10^4 L mol^−1”, the Kq entry was “(8.73 ± 0.12) × 10^12 L mol^−1 s^−1”, the “n (number of binding sites)” value is listed as 1.053 and the ΔG is -17.64 kcal/mol. Further, the KSV result in data set [4] (298.15 K) is “(8.73 ± 0.12) × 10^4 L mol^−1”. Moreover, in data set [4] (310.15 K), the “Ka (association constant for a site)” value is given as “(13.948 ± 1.15) × 10^4 L mol^−1”, the Kq result was “(10.4 ± 0.15) × 10^12 L mol^−1 s^−1”, the “n (number of binding sites)” value came out at 0.994 and the ΔG is -18.47 kcal/mol. The KSV result in data set [4] (310.15 K) was “(10.4 ± 0.15) × 10^4 L mol^−1”. Also, in data set [4] (Van't Hoff, 293.15-310.15 K), the ΔH is 11.99 (R^2 = 0.9963) kJ mol^−1 and the ΔS came out at 287.92 J mol^−1 K^−1. Also, the “Quenching of fluorescence intensity” value in data set [4] (highest Ru concentration (45 μM), pH 7.4, incubation at 298 K for 24 h) was 75%. In data set [5], this substance had an IC50 of 72.4 ± 50 µM.
